Six compounds from the kinase profiling compilation of Christmann-Franck et al. (2016) can be followed below.

Targets include MAP3K7 TAB1 (human) (UniProt O43318+Q15750); CDK9 CCNT1 (human) (UniProt P50750+O60563); CDK1 CCNA2 (human) (UniProt P06493+P20248); CDK2 CCNE1 (human) (UniProt P24941+P24864); CDK2 CCNA2 (human) (UniProt P24941+P20248); CDK4 CCND3 (human) (UniProt P30281+P11802); CDK6 CCND3 (human) (UniProt P30281+Q00534); DYRK1B (human) (UniProt Q9Y463); CDK5 CDK5R1 p35 (human) (UniProt Q00535+Q15078); CDK3 CCNE1 (human) (UniProt Q00526+P24864); LTK (human) (UniProt P29376); CDK9 CCNK (human) (UniProt O75909+P50750); STK33 (human) (UniProt Q9BYT3); CDK6 CCND1 (human) (UniProt Q00534+P24385); CDK1 CCNB1 (human) (UniProt P06493+P14635); CDK4 CCND1 (human) (UniProt P24385+P11802); CDK7 CCNH MNAT1 (human) (UniProt P50613+P51948+P51946); CDK5 CDK5R1 p25 (human) (UniProt Q00535+Q15078); PRKCH (human) (UniProt P24723).

Experiment in all cases: radiometric filter-binding kinase assay, Kinase HotSpot
Holding throughout (details): compound 0.5 µM; ATP 10 µM

For assay [1], the system named is MKNK1 (human), Q9BUB5 [T385D; 165-205 del].
The test system of assay [2] is MAP2K6 (human), P52564 [S207E/T211E].
The subject of assay [3] is FLT4 (human), P35916 [Q890H].
Assay [4] deals with PRKCQ (human), Q04759 [P330L].

In general, residual activity refers to the signal under treatment as a percentage of the control signal.

Each structure is given as a SMILES string.

CDK4 CCND3 (human), sequence (P11802 whole entry, looked up): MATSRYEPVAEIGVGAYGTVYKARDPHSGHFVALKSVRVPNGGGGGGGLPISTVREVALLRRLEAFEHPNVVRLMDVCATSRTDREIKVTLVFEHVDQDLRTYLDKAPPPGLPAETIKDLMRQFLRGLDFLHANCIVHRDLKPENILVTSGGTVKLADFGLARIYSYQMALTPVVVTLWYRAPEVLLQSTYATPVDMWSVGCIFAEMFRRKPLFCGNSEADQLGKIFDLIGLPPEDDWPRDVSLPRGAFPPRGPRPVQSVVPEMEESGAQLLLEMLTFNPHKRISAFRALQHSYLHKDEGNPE
CDK4 CCND3 (human), sequence (P30281 whole entry, looked up): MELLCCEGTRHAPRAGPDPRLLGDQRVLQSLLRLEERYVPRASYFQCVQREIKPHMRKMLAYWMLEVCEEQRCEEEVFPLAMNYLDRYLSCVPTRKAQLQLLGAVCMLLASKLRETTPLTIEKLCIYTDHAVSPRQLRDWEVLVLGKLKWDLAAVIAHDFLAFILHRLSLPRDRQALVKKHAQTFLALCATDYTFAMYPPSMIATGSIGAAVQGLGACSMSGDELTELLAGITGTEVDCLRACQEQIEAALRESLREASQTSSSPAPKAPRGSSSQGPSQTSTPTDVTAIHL
CDK4 CCND1 (human), sequence (P11802 whole entry, looked up): as the sequence (P11802 whole entry, looked up) above
CDK4 CCND1 (human), sequence (P24385 whole entry, looked up): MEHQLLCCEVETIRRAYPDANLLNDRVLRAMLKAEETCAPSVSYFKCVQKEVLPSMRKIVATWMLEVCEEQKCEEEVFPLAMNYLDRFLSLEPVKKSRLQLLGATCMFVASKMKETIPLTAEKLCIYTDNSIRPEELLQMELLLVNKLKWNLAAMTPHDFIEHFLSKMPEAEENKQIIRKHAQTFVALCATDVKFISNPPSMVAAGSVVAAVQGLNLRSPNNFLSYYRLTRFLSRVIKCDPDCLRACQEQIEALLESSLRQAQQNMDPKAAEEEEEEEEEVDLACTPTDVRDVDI
DYRK1B (human), sequence (Q9Y463 whole entry, looked up): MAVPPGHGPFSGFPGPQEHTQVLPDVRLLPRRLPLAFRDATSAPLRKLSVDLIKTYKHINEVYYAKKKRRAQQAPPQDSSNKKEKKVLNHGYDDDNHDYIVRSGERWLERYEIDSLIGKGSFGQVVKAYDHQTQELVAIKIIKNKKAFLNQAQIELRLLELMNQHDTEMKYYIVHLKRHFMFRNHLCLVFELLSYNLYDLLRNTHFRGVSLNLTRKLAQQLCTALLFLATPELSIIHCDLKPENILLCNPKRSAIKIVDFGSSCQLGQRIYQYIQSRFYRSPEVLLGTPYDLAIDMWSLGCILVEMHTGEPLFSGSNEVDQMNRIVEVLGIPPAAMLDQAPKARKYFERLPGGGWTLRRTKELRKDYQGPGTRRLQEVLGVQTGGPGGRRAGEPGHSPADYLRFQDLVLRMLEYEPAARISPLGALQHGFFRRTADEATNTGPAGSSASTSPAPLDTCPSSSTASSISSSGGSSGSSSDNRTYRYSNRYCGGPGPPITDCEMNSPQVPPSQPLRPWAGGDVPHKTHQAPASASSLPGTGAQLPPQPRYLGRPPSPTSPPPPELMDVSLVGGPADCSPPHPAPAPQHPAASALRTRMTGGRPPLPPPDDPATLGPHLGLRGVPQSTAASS
STK33 (human), sequence (Q9BYT3 whole entry, looked up): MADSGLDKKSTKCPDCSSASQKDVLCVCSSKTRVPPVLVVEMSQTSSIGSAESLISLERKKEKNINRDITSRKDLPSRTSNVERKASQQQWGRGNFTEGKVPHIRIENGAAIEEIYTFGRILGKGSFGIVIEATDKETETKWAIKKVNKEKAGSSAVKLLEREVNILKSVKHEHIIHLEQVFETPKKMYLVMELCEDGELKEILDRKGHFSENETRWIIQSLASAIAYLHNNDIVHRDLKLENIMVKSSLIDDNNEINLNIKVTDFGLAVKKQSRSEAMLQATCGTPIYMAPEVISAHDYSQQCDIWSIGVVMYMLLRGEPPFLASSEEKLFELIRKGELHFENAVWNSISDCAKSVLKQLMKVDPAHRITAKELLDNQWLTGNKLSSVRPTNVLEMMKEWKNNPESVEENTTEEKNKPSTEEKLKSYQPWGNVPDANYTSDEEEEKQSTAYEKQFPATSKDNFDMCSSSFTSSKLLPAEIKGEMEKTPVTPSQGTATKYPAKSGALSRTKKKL
CDK9 CCNT1 (human), sequence (O60563 whole entry, looked up): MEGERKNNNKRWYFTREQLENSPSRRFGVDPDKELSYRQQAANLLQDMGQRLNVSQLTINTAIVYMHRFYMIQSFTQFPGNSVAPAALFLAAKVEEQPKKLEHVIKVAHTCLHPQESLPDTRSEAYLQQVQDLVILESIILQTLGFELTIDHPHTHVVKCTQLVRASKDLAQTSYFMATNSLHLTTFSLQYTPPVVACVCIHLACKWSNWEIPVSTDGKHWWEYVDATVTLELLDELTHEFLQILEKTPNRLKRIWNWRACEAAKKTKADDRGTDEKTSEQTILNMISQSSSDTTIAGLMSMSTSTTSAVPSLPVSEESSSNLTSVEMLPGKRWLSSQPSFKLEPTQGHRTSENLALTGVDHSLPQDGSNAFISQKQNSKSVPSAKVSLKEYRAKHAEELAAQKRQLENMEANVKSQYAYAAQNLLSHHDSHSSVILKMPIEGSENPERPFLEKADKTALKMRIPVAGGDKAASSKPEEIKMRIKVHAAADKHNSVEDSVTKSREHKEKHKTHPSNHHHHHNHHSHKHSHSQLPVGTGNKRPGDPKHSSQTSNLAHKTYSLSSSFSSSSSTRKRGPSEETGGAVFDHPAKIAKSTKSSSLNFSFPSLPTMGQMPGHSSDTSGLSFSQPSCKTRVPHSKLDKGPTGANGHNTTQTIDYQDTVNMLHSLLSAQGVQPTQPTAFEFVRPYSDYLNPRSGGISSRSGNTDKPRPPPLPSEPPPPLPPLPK
CDK9 CCNT1 (human), sequence (P50750 whole entry, looked up): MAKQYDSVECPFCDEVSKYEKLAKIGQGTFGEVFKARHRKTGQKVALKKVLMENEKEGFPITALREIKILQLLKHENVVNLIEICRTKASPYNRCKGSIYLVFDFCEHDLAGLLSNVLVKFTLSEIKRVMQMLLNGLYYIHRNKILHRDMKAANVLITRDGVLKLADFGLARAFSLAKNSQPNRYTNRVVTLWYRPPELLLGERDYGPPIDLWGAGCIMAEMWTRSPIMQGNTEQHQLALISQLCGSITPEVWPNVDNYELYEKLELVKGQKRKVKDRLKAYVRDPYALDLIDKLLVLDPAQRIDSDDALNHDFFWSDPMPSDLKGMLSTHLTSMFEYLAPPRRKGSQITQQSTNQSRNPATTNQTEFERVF
PRKCH (human), sequence (P24723 whole entry, looked up): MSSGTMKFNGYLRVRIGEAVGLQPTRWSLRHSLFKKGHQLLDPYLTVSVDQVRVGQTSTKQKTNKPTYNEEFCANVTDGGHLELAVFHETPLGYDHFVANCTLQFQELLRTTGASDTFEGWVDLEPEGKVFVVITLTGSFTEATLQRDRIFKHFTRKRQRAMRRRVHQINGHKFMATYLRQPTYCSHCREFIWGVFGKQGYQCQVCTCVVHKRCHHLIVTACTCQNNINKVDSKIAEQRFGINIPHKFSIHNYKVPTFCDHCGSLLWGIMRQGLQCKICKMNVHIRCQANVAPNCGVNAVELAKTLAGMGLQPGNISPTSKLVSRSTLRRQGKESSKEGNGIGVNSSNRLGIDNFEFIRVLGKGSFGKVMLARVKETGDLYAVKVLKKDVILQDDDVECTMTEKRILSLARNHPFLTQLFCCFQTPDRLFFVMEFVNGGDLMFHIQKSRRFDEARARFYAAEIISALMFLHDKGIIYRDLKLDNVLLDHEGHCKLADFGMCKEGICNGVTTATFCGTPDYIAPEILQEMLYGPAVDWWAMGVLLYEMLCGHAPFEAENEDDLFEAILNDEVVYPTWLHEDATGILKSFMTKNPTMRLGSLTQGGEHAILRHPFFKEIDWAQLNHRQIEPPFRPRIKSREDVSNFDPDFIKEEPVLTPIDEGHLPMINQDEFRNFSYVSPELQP
LTK (human), sequence (P29376 whole entry, looked up): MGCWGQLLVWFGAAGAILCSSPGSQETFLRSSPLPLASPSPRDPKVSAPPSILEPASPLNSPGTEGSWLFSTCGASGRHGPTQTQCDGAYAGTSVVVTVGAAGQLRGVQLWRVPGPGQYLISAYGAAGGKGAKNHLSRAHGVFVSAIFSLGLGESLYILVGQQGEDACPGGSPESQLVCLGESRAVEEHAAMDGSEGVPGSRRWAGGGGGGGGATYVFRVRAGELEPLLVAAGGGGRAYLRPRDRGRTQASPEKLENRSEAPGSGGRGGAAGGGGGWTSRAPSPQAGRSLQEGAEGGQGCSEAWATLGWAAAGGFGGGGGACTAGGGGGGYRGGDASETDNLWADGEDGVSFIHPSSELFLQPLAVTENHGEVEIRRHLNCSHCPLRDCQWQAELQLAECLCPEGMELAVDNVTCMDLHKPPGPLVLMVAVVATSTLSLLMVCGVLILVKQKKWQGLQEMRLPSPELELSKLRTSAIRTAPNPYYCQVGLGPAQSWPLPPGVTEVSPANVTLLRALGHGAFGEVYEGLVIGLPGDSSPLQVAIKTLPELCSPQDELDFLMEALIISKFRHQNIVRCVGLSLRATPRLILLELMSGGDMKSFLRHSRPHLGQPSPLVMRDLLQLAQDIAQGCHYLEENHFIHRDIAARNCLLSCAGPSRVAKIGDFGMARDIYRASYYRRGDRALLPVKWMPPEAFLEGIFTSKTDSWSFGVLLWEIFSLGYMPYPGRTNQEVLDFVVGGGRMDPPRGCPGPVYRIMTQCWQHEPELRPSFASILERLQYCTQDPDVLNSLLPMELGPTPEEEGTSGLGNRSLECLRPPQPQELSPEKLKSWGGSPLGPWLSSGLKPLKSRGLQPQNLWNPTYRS

For the compound `NCCNc1ncc(C(N)=O)c(Nc2cccc(C(F)(F)F)c2)n1`, the residual activity at MAP3K7 TAB1 (human) amounted to 71.2%; at CDK9 CCNT1 (human), 82%; at CDK1 CCNA2 (human), 88.3%; on CDK2 CCNE1 (human) it was 89%; at CDK2 CCNA2 (human), 97.6%; at CDK4 CCND3 (human), 94.8%. Besides, the residual activity amounted to 100% on CDK6 CCND3 (human); 85.9% on DYRK1B (human); 84.2% on CDK5 CDK5R1 p35 (human); 95.3% at CDK3 CCNE1 (human); 84.8% at LTK (human); 95.6% on CDK9 CCNK (human). Further, the residual activity at STK33 (human) worked out at 81.9%; on CDK6 CCND1 (human), 94.6%; on CDK1 CCNB1 (human), 81.7%; at CDK4 CCND1 (human) it was 108%; on CDK7 CCNH MNAT1 (human), 98.5%; at CDK5 CDK5R1 p25 (human), 92.4%.

On to `O=C1c2ccccc2-c2n[nH]c3cccc1c23`, for which the residual activity was 87.6% at PRKCH (human); 59.3% on MAP3K7 TAB1 (human); 99.3% on CDK9 CCNT1 (human); 85.6% at CDK1 CCNA2 (human); 79.5% at CDK2 CCNE1 (human); 76.1% on CDK2 CCNA2 (human). Besides, the residual activity is 104% at CDK4 CCND3 (human); 88.6% at CDK6 CCND3 (human); 65.7% at DYRK1B (human); 94.3% at CDK3 CCNE1 (human); 77.8% at LTK (human); 96% at CDK9 CCNK (human). The residual activity came out at 47.7% at STK33 (human); 88.6% at CDK6 CCND1 (human); 63.4% at CDK1 CCNB1 (human); 96.3% on CDK4 CCND1 (human); 94.7% on CDK7 CCNH MNAT1 (human).

Take `Cc1cn(-c2cc(NC(=O)c3ccc(C)c(Nc4nccc(-c5cccnc5)n4)c3)cc(C(F)(F)F)c2)cn1`: the residual activity on PRKCH (human) was 121%; on MAP3K7 TAB1 (human), 89.2%; on CDK9 CCNT1 (human) it was 94.7%; at CDK1 CCNA2 (human), 99.7%; on CDK2 CCNE1 (human), 98.9%; at CDK2 CCNA2 (human), 95.5%. In addition, the residual activity stood at 108% on CDK4 CCND3 (human); 128% at CDK6 CCND3 (human); 92.8% at DYRK1B (human); 105% at CDK5 CDK5R1 p35 (human); 95.2% at CDK3 CCNE1 (human); 101% on LTK (human). For the same compound, the residual activity on CDK9 CCNK (human) was found to be 97.9%; at STK33 (human), 87.1%; at CDK6 CCND1 (human), 97.1%; at CDK1 CCNB1 (human) it was 97.8%; on CDK4 CCND1 (human), 97%; on CDK7 CCNH MNAT1 (human) it was 109%. Further, the residual activity at CDK5 CDK5R1 p25 (human) is 91.7%.

With `CN1CCN(c2ccc3nc(-c4c(N)c5c(F)cccc5[nH]c4=O)[nH]c3c2)CC1`, the residual activity on PRKCH (human) turned out to be 103%; at MAP3K7 TAB1 (human), 19.3%; at CDK9 CCNT1 (human) it was 97.7%; at CDK1 CCNA2 (human) it was 93.6%; on CDK2 CCNE1 (human), 92.3%; at CDK2 CCNA2 (human) it was 91%. Moreover, the residual activity at CDK4 CCND3 (human) was 89.6%; at CDK6 CCND3 (human), 31.9%; at DYRK1B (human), 87.9%; on CDK3 CCNE1 (human), 92.3%; at LTK (human), 92.5%; at CDK9 CCNK (human), 91.1%. Further, the residual activity at STK33 (human) is 60.7%; on CDK6 CCND1 (human), 74.6%; on CDK1 CCNB1 (human), 90.9%; at CDK4 CCND1 (human), 79.5%; at CDK7 CCNH MNAT1 (human) it was 104%.

With `CSc1nc(-c2ccc(F)cc2)c(-c2ccnc(NC(C)c3ccccc3)c2)[nH]1` (centres undefined), the residual activity in assay [1] was determined as 97.1%; in [2], 80.5%; in [3], 91.3%; in [4] it was 111%.

As to `Cc1ccc(NC(=O)c2ccc(CN3CCN(C)CC3)cc2)cc1Nc1nc(-c2cccnc2)cs1`, the residual activity in assay [1] stood at 90%; in assay [2] it was 96.5%; in assay [3], 100%; in assay [4], 103%.
